Source: US8529915B2, “(R)-(-)-1,2-propanediol compositions and methods” (priority 2010, dated 2013)
Converted amounts (≈) assume the structure as drawn. “Also recorded” adds a separate entry of the source. Where two headings read alike, the source gives them in different places. Values belong to the compound of their own block, whether it stands above or below them.

Assays:
[1] = system: rodents; details: oral; cited from earlier work
[2] = system: humans; details: based on intravenous infusion studies; cited from earlier work
[3] = system: philtrum skin; assay: philtrum skin cooling bioassay; assay type: in vivo, human; details: for cooling activity AUC in (R)-1,2-propanediol / cooling activity AUC in racemic-1,2-propanediol: ± S.E.M.; for cooling effect: applied to the philtrum
Excerpt: The term “alcoholic solvent” refers to a chemical with one to four carbons with at least one hydroxyl group attached to a carbon atom. A reliable place for topical application is the skin above the upper lip (above the vermilion border of the lips), on the philtrum, lateral to the philtrum until the nasolabial folds, and on the lower nostrils (subnasale). This part of the face is known to be densely innervated with cold receptors, second only to the surfaces of the eyeball and anogenitalia. Tingling, cool and cold sensations from the skin may be experienced and rated for time of onset and intensity.
The intervals for recording sensations are 5 to 10 minutes, until two successive zeroes are obtained. The results (shown in the Figures) are averaged values of 4 to 6 separate trials in the same individual. The data are plotted using SigmaPlot (Systat Software, Point Richmond Calif.) and a smoothing function with a negative exponential was used for analysis and statistical fit of the results. The onset of drug action is taken as the time to reach 2 units of coolness intensity, and offset of drug action is the time when coolness intensity drops below 2, after previously surpassing 2 units. The duration of cooling action is defined as the offset time minus the onset time and the primary index of effect. […]
Using a cotton-tipped applicator (e.g. Q-tips®) 0.10 to 0.25 ml of the test solution was applied to the skin above the upper lip, on the philtrum, and lateral to the philtrum up to the nasolabial folds, and the onset and duration of cooling sensations noted. […] The interval for recording sensations was at 5 to 10 minute intervals, until at least two successive zeroes were obtained. The results were averaged values of 3 to 6 separate trials in the same individual. The “onset” is the time taken to reach a coolness intensity value of 2. […] The “off-set” is when the coolness intensity drops below 2, and the duration is the time of off-set minus the time of onset. The area under the curve (AUC) also gives an estimate of the intensity and duration of drug action and can be obtained from the plotted data using SigmaPlot (Systat Software, Point Richmond Calif.). The AUC is given in average ±S.E.M. units which is the product of cooling intensity×min.

[4] = system: tongue; details: average for 6 subjects, filter paper on dorsal tongue, 30 seconds; cited from earlier work
[5] = solubility in solvents; assay type: physicochemical; details: organic solvent or mixture
Method: Many cooling agents are more soluble in ethanol than in 1,2-propanediol. For example, W-3 and CPS-369 are soluble in absolute ethanol at >300 mg/ml and >500 mg/ml, respectively. These compounds are less soluble in 1,2-propanediol, with solubilities of about 10 mg/ml at standard conditions. To formulate liquid compositions of cooling agents, it is convenient to use up to 5% of ethanol in the total volume to dissolve the cooling agent and then add the rest as (R)-1,2-propanediol to complete the formulation without significant loss of cooling actions.

[6] = system: itch (contact dermatitis) on the scalp; assay: scalp itch (contact dermatitis) case, topical application; assay type: in vivo, human; details: for sensations of coolness after application to scalp: 5 mg/ml in 1% ethanol-99% (R)-1,2-propanediol, droplet delivery; for itch after two days of applications: applications spaced approximately 10 hours apart, scalp
Method: An individual developed intense itch (contact dermatitis) on the scalp at the base of the skull after use of hair dye. A cotton-tipped stick was used to apply CPS-410 or CPS-412, 5 mg/ml dissolved in a 1% ethanol-99% (R)-1,2-propanediol, to the site of itch. The itch sensations were suppressed within 5 min of application of either solution and this effect lasted for at least 8 hr. In a second experiment, the solutions were applied using a plastic bottle with a conical Yorker spout. This allowed more precise droplet delivery of the solution to the site of itch. […] The advantage of liquid formulation is the ease of uniform delivery to the inflamed site, a method not achievable with cream or ointment. Itch symptoms of hair and fur occur in seborrheic dermatitis, psoriasis, insect bites, canine pruritus, and allergic dermatitis. Liquid formulations containing (R)-1,2-propanediol and a cooling agent may be therapeutically valuable in these conditions.

[7] = target: TRP-M8 receptor (Homo sapiens, UniProt Q7Z2W7); details: cited from earlier work
Sequence of TRP-M8 receptor (Q7Z2W7 whole entry): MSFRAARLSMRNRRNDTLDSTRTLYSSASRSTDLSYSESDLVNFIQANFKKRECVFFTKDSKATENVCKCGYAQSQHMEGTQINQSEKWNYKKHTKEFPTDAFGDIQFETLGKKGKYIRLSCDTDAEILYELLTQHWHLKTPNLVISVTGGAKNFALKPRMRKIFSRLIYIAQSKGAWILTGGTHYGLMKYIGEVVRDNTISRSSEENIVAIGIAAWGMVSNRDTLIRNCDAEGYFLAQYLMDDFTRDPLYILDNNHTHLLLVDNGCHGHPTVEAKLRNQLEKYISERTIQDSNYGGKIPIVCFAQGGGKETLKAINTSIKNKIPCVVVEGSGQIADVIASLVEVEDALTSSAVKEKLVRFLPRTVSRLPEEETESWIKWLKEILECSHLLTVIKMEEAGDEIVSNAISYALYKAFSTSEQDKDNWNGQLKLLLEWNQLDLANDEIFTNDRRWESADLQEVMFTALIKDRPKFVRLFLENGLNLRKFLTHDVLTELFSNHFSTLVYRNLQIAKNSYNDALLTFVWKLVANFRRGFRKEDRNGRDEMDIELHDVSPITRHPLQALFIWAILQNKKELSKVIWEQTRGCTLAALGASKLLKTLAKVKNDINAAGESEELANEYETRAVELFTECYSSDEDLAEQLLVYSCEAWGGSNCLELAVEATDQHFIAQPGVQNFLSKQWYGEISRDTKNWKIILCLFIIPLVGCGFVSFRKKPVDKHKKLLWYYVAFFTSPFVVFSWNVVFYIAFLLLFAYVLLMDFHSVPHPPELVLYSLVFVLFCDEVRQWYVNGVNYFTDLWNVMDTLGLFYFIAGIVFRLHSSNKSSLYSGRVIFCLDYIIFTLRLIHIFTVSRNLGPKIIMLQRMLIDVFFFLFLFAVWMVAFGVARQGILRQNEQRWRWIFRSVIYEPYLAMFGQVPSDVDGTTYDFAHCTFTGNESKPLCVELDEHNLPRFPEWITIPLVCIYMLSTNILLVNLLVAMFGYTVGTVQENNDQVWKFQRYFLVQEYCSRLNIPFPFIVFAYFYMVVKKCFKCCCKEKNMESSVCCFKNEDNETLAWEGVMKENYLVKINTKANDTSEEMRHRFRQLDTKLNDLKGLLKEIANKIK

[8] = system: axillary skin lesion of plaque psoriasis; assay: plaque psoriasis case, axillary skin lesion itch and burning; assay type: in vivo, human; details: same patient, subsequent treatment
Excerpt: A person with an 8-year history of plaque psoriasis complained of an axillary skin lesion that itched, had burning sensations, and kept them awake at night. Their condition was severe and chronic. Their parent complained that they had to vacuum their bedroom every day in order to remove flaking skin debris. […] They volunteered to try CPS-148, 2% dissolved in 1% ethanol-99% (R)-1,2-propanediol, and was given instructions on how to apply the solution to their site of itch with a swab stick (Q-tip™). They claimed after the first time of application at night the burning sensations and itch disappeared within 5 to 10 min and they were able to have a good night's sleep. They continued to use the solution on an “as-needed basis” for one month and claimed that they slept much better than before.

[9] = CPS-369 at 10 mg/ml dissolved in the named solvent, applied to philtrum skin, based on AUC, inactive = coolness intensity did not exceed 2 units
[10] = 5 mg/ml, (R)-1,2-propanediol with 1% ethanol vol/vol, philtrum
[11] = 5 mg/ml, racemic 1,2-propanediol with 1% ethanol vol/vol, philtrum
[12] = absolute ethanol, read-out: solubility in absolute ethanol
[13] = 1,2-propanediol, standard conditions, read-out: solubility in 1,2-propanediol

Compound: CC(O)CO (racemic) [racemic 1,2-propanediol, 1,2-propanediol]
median lethal dose [1]: about 25 ml/kg of body weight | estimated “safe” dose [2]: 1 g per kg body weight per day

Compound: CC(O)CCO (racemic) [racemic 1,3-butanediol, 1,3-butanediol]
Cooling Activity % (relative to (R)-1,2-propanediol) [3, 9]: 10% | Cooling Activity % (relative to (R)-1,2-propanediol) ([3]; in vivo): significant loss of cooling activity

Compound: CC1CCC(C(C)C)C(O)C1 (single isomer, unassigned; (-)) [(−)-menthol]
Threshold (amount producing cooling sensations on the tongue), average [4]: 0.25 µg

Compound: OCCCO [1,3-propanediol]
Cooling Activity % (relative to (R)-1,2-propanediol) [3, 9]: significant loss of cooling activity; also recorded: inactive

Compound: C[C@H](O)CO [(S)-1,2-propanediol]
Cooling Activity % (relative to (R)-1,2-propanediol) [3, 9]: 47%

Compound: CCCCCCP(=O)(C(C)CC)C(C)CC (stereo not drawn) [CPS-147, 1-(Di-sec-butyl-phosphinoyl)-hexane]
cooling activity AUC in (R)-1,2-propanediol ([3]; 3 mg/ml, (R)-1,2-propanediol with 2% ethanol vol/vol, philtrum): 81 ± 4 cooling intensity × min | cooling activity AUC in racemic-1,2-propanediol ([3]; 3 mg/ml, racemic 1,2-propanediol with 2% ethanol vol/vol, philtrum): 64 ± 4 cooling intensity × min

Compound: CCCCCCCP(=O)(C(C)CC)C(C)CC (stereo not drawn) [CPS-148, 1-(Di-sec-butyl-phosphinoyl)-heptane]
cooling activity AUC in (R)-1,2-propanediol ([3]; 2 mg/ml, (R)-1,2-propanediol with 1% ethanol vol/vol, philtrum): 173 ± 15 cooling intensity × min | cooling activity AUC in racemic-1,2-propanediol ([3]; 2 mg/ml, racemic 1,2-propanediol with 1% ethanol vol/vol, philtrum): 75 ± 6 cooling intensity × min

solubility [5, 12]: > 500000 µg/mL | solubility [5, 13]: ~10000 µg/mL (≈ 35.3 mM)
Compound: CCOC(=O)[C@@H](C)NC(=O)[C@@H]1C[C@H](C)CC[C@H]1C(C)C [CPS-369, (R)-2-[((1R,2S,5R)-2-isopropyl-5-methyl-cyclohexanecarbonyl)-amino]-propionic acid ethyl ester]
cooling activity AUC in (R)-1,2-propanediol [3, 10]: 218 ± 12 cooling intensity × min | cooling activity AUC in racemic-1,2-propanediol [3, 11]: 134 ± 16 cooling intensity × min

Compound: CCCOC(=O)[C@@H](C)NC(=O)[C@@H]1C[C@H](C)CC[C@H]1C(C)C [CPS-410, (R)-2-[((1R,2S,5R)-2-isopropyl-5-methyl-cyclohexanecarbonyl)-amino]-propionic acid n-propyl ester]
cooling activity AUC in (R)-1,2-propanediol [3, 10]: 281 ± 7 cooling intensity × min | cooling activity AUC in racemic-1,2-propanediol [3, 11]: 122 ± 12 cooling intensity × min | sensations of coolness after application to scalp [6]: produced sensations of coolness | itch after two days of applications [6]: no longer present

Compound: CCCCOC(=O)[C@@H](C)NC(=O)[C@@H]1C[C@H](C)CC[C@H]1C(C)C [CPS-412, (R)-2-[((1R,2S,5R)-2-isopropyl-5-methyl-cyclohexanecarbonyl)-amino]-propionic acid n-butyl ester]
cooling activity AUC in (R)-1,2-propanediol [3, 10]: 243 ± 5 cooling intensity × min | cooling activity AUC in racemic-1,2-propanediol [3, 11]: 127 ± 10 cooling intensity × min | sensations of coolness after application to scalp [6]: less noticeable | itch after two days of applications [6]: no longer present

Compound: C[S+](C)[O-] [Dimethylsulfoxide]
in vitro inhibition of TRP-M8 response relative to alcohols ([7]; Benedikt et al. 2007): less inhibitory

solubility [5, 12]: > 300000 µg/mL | solubility [5, 13]: ~10000 µg/mL (≈ 47.3 mM)
Compound: CCNC(=O)C1CC(C)CCC1C(C)C (stereo not drawn) [WS-3, 2-Isopropyl-5-methyl-cyclohexanecarboxylic acid ethylamide]
cooling effect ([3]; 20 mg/ml in absolute ethanol): did not produce significant cooling | cooling activity AUC in (R)-1,2-propanediol ([3]; 20 mg/ml, (R)-1,2-propanediol with 3% ethanol vol/vol, philtrum): 122 ± 8 cooling intensity × min | cooling activity AUC in racemic-1,2-propanediol ([3]; 20 mg/ml, racemic 1,2-propanediol with 3% ethanol vol/vol, philtrum): 64 ± 6 cooling intensity × min

Compound: CCOC(=O)CNC(=O)[C@@H]1C[C@H](C)CC[C@H]1C(C)C [WS-5, [((1R,2S,5R)-2-isopropyl-5-methyl-cyclohexanecarbonyl)-amino]-acetic acid ethyl ester]
cooling effect ([3]; 10 mg/ml in 100% ethanol): did not produce any cooling effect

Compound: CCO [ethanol]
Cooling Activity % (relative to (R)-1,2-propanediol) [3, 9]: loss of cooling activity; also recorded: inactive | TRP-M8 receptor response to (−)-menthol ([7]; 3% concentration of ethanol): almost totally lost

Compound: CC(C)O [isopropanol]
Cooling Activity % (relative to (R)-1,2-propanediol) [3, 9]: loss of cooling activity; also recorded: inactive

Compound: (R)-1,2-propanediol
reversal of ethanol inhibition of WS-5 cooling ([3]; added at 10%, 20% and 40% vol/vol to ethanolic solution of WS-5 10 mg/ml, philtrum): reversed the ethanol inhibition in a dose-dependent relationship

Compound: Enbrel®
psoriatic condition after a course of treatment [8]: improved considerably

Compound: n-propanol
Cooling Activity % (relative to (R)-1,2-propanediol) [3, 9]: loss of cooling activity; also recorded: inactive
